From patent US11268958B2, “Bacteria-specific labeled substrtates as imaging biomarkers to diagnose, locate, and monitor infections” (THE JOHNS HOPKINS UNIVERSITY, priority 2012, dated 2022)
Where two headings read alike, the source gives them in different places.

What was measured:
[1] = system: Staphylococcus aureus, Escherichia coli, Mycobacterium smegmatis; test: Differential intracellular accumulation in three model bacteria; details: S. aureus, E. coli, M. smegmatis
Method: (§3) In vitro uptake assays: Freeze dried reference strains of various bacterial species were purchased from American Type Culture Collection (Manassas, Va.) and grown to mid-log phase (OD600 1.0) in Lysogeny Broth (LB) or Middlebrook 7H9 broth supplemented with 10% oleic acid-albumin-dextrose-catalase (Difco, Detroit, Mich.) and 0.05% Tween 80 (Sigma). The number of colony forming units (CFUs) were enumerated by dilution and plating onto solidified media. Tracer uptake assays were performed by incubating bacterial cultures with 7.4 kBq per ml culture of tracer at 37° C. with rapid agitation for 4 hours, with sampling at 0, 30, 120, and 240 minutes. As a control, heat killed (90° C. for 20 minutes) bacteria were similarly incubated with each tracer. Bacteria were pelleted by centrifugation and washed three times with PBS. The activity for each pellet was measured using an automated gamma counter (1282 Compugamma CS Universal gamma counter, LKB Wallac). Background counts were subtracted from sample counts. Six independent replicates were used for each tracer, and for each bacterial strain. Uptake was expressed as the percentage of total tracer added to the culture that resided within the cell pellet.

[2] = system: Mycobacterium tuberculosis
Method: as §3

S. aureus = test: Scintillation counting of resected tissues in S. aureus thigh infection vs LPS; type: in vivo, CBA/J mice; details: live S. aureus right thigh, 50 μg LPS left thigh, IV
Method: We next investigated whether [^3H]-2-F-PABA was capable of detecting infection with S. aureus in vivo. […] [^3H]-2-F-PABA was injected IV using a tail vein catheter. Mice were sacrificed following injection, tissues were then resected and radiotracer uptake measured by scintillation counting.

Mycobacterium smegmatis = test: Intracellular tracer uptake assay in M. smegmatis cultures; details: 2 hours of incubation
Method: as §3

[3] = system: Human Brain Microvascular Endothelial Cells (HBMEC); details: 2 h
heat killed bacteria = test: Tracer uptake in heat killed bacteria (negative control); type: cell-based
From the text: Background counts were subtracted from sample counts.
(§1) [^18F]FDS uptake and imaging. […] Tissues were collected for direct gamma counting.

Escherichia coli = test: Intracellular tracer uptake assay in E. coli cultures; type: cell-based
Staphylococcus aureus = test: Intracellular tracer uptake assay in S. aureus cultures; type: cell-based; details: for intracellular uptake / probe incorporated by bacteria (percent of total radioactivity): S. aureus; for probe incorporated by bacteria (percent of total radioactivity): gram positive control, 120 minutes
J774 macrophages = test: Tracer uptake in host cells (J774 macrophages); type: cell-based; details: for accumulation in eukaryotic cell line: J774 macrophage (data not shown)
[4] = system: Enterobacteriaceae family; test: [18F]FDS uptake in representative organisms: Enterobacteriaceae; type: cell-based; details: members of the Enterobacteriaceae family
Method: as §1
(§2) To further assess the specificity of uptake, E. coli cultures were co-incubated with [^18F]FDS and increasing concentrations of unlabeled sorbitol (FIG. 6B). […] The presence of a srl gene cassette responsible for sorbitol transport, phosphorylation, and oxidation was noted within the annotated genome of E. coli. To predict the range of organisms capable of [^18F]FDS uptake, and therefore detection by PET, the srlD, the gene encoding E. coli sorbitol-6-phosphate dehydrogenase was used to query the UniProtKB database of genome sequenced bacterial species. Alignment and percentage identity was calculated using ClustalOmega. We then selected representative organisms from this panel to test for [^18F]FDS uptake (FIG. 6C).

K. pneumoniae [5] = test: Intracellular tracer uptake assay in K. pneumoniae cultures; details: after 120 minutes
Method: as §3

E. coli = details: for right thigh vs. left thigh uptake ratio (gamma counts of resected tissues) / PET signal intensity, infected right thigh versus control left thigh (ROIs): live E. coli right thigh, heat killed E. coli left thigh; for PET signal intensity, infected right thigh versus control left thigh (ROIs): 8 hours incubation
K. pneumoniae [6] = test: PET imaging and gamma counting in K. pneumoniae pulmonary infection model; type: in vivo, CBA/J mice
WEHI 164 fibroblasts = test: Tracer uptake in WEHI 164 fibroblasts; type: cell-based; details: WEHI 164 fibroblast (data not shown)
Pseudomonas aeruginosa = test: [18F]FDS uptake in representative organisms: Pseudomonas aeruginosa; type: cell-based; details: aerobic gram-negative rod Pseudomonas aeruginosa
Method: as §1, §2

E. coli vs S. aureus = test: PET imaging and gamma counting in mixed infection model (E. coli right thigh, S. aureus left thigh); details: 6 hours incubation, imaging
[7] = system: Enterococcus, Staphylococcus and Streptococcus species; test: [18F]FDS uptake in representative organisms: gram positive organisms; type: cell-based
Method: as §1, §2

[8] = M. tb, ^3H labeled tracers, 18 hours of incubation

O=C[C@H](O)[C@@H](O)[C@H](O)CO [XYL, D-xylose]
species that take up the compound (differential uptake) [1]: E. coli alone

Nc1ccc(C(=O)O)c(F)c1 [2-F-PABA, 2-fluoro-PABA]
intracellular uptake [2, 8]: 29.4%
right thigh vs. left thigh uptake ratio (scintillation counting) (S. aureus): 2.62±0.98

Nc1ccc(C(=O)O)cc1F [3-F-PABA, 3-fluoro-PABA]
intracellular uptake [2, 8]: 11.2%

OC[C@@H](O)[C@@H](O)[C@H](O)[C@H](O)CO [[^14C] D-mannitol, D-mannitol]
intracellular uptake (Mycobacterium smegmatis): 83%
uptake [3]: < 5%
uptake in heat killed bacteria (heat killed bacteria): No uptake
intracellular uptake (Escherichia coli; E. coli, 2 hours of incubation): 82%
intracellular uptake (Staphylococcus aureus; 30 minutes, 5 mM glucose): 33%
intracellular uptake (Staphylococcus aureus; 30 minutes, 10 mM glucose): 30%
intracellular uptake (Staphylococcus aureus; 30 minutes, without any glucose in the media): 53.5%
intracellular uptake (Staphylococcus aureus; 2 hours of incubation): 66%
uptake (J774 macrophages; 2 h): < 5%

Nc1ccc(C(=O)O)cc1 [PABA, p-aminobenzoic acid]
accumulation (percent of total radioactivity in bacterial pellet) ([2]; 2 h): 32.9%
accumulation (percent of total radioactivity in bacterial pellet) ([2]; 18 h): 96.3%
intracellular uptake ([2]; 18 h): 58.5%
uptake on addition of excess unlabelled tracer ([2]; M. tuberculosis, excess unlabelled tracer): saturable and specific
uptake in heat killed bacteria (heat killed bacteria): no uptake
uptake saturability/specificity (Escherichia coli; E. coli mid log cultures): saturable and specific
uptake saturability/specificity (Staphylococcus aureus; S. aureus mid log cultures): saturable and specific
accumulation in host-cells (J774 macrophages; J774 macrophages, corresponding time-points (2 and 18 hours)): no significant accumulation

OC[C@@H](O)[C@@H](O)[C@H](O)[C@@H]([18F])CO [[^18F]FDS, 2-[^18F]-fluorodeoxysorbitol]
accumulation of the probe [4]: accumulated
probe associated with bacteria (percent of total radioactivity) (K. pneumoniae [5]): 71.1%±8.6%
right thigh vs. left thigh uptake ratio (gamma counts of resected tissues) (E. coli): 16.37±4.12
PET signal intensity, infected right thigh versus control left thigh (ROIs) (E. coli): 12 fold
route of clearance from circulation (E. coli; mice, over 120 minutes of recording (data not shown)): predominantly by the kidneys
lung vs. blood gamma count ratio (K. pneumoniae [6]): 10.89±4.09
ratio of standardized uptake values, infiltrated vs normal lung tissue ROIs (K. pneumoniae [6]; 18.5 MBq (data not shown)): 5.02±66.33
uptake in heat killed bacteria (heat killed bacteria): did not incorporate
accumulation in eukaryotic cell line (WEHI 164 fibroblasts): not
probe associated with bacteria (percent of total radioactivity) (Escherichia coli; E. coli K12, after 120 minutes): 72.2%±9.0%
concentration of unlabeled sorbitol that outcompetes uptake (Escherichia coli; E. coli co-incubated with increasing unlabeled sorbitol): above 40 ug/ml
concentration of unlabeled sorbitol that outcompetes uptake (Escherichia coli; E. coli co-incubated with increasing unlabeled sorbitol (FIG. 6B legend)): above 40 μg/ml
accumulation of the probe (Pseudomonas aeruginosa): did not accumulate
PET signal at E. coli infected thigh versus S. aureus infected thigh (E. coli vs S. aureus): significantly more intensity
probe incorporated by bacteria (percent of total radioactivity) (Staphylococcus aureus): 0.47%±0.09%
accumulation of the probe [7]: did not accumulate
accumulation in eukaryotic cell line (J774 macrophages): not

OC[C@H]1OC(O)[C@H]([18F])[C@@H](O)[C@@H]1O (stereo partly shown) [[^18F]FDG, 2-[^18F]-fluorodeoxyglucose, reference compound]
right thigh vs. left thigh uptake ratio (gamma counts of resected tissues) (E. coli): 1.03±0.09
PET signal intensity, infected right thigh versus control left thigh (ROIs) (E. coli): did not produce a significant difference
sites of PET signal concentration (E. coli; mice, CT coregistration): heart and bladder
uptake in heat killed bacteria (heat killed bacteria): did not incorporate
accumulation in eukaryotic cell line (WEHI 164 fibroblasts): accumulated
probe incorporated by bacteria (percent of total radioactivity) (Staphylococcus aureus): 50.3%±3.1%
accumulation in eukaryotic cell line (J774 macrophages): accumulated

NC(CCCC(N)C(=O)O)C(=O)O (stereo not shown) [DAP, 2,6-diaminopimelic acid]
species that take up the compound (differential uptake) [1]: E. coli and M. smegmatis
